Laboratory results taken from US8592407B2, “Pyrrolo[2,1-c][1,4] benzodiazepine derivatives with dithiocarbamate side chains and process for the preparation thereof” (Council of Scientific & Industrial Research, priority 2008, dated 2013).

Columns and labels:
[1] = tested on: HL-60(TB); test: NCI in vitro cytotoxicity (SRB); assay type: cell-based; details: Homo sapiens; Leukemia HL-60(TB); 48 h exposure
[2] = tested on: calf thymus DNA (CT-DNA); test: Thermal denaturation studies with duplex-form calf thymus DNA; assay type: binding; details: [PBD]:[DNA] 1:5, CT-DNA 100 μM, ligand 20 μM, pH 7.00; for ΔTm after incubation at 37° C. for 0 h: 0 h at 37° C.; for ΔTm after incubation at 37° C. for 18 h: 18 h at 37° C.
Procedure: Compounds have been subjected to thermal denaturation studies with duplex-form calf thymus DNA (CT-DNA) using an modification of a reported procedure (Newman, M. S. Carcinog-compr. Surv. 1976, 1, 203; (b) Hecht, S. S.; Loy, M.; Hoffman, Carcinog-compr. Surv. 1976, 1, 325). Working solutions in aqueous buffer (10 mM NaH2PO4/Na2HPO4, 1 mM Na2EDTA, pH 7.00+0.01) containing CT-DNA (100 μm in phosphate) and the PBD (20 μm) have been prepared by addition of concentrated PBD solutions in DMSO to obtain a fixed [PBD]/[DNA] molar ratio of 1:5. The DNA−PBD solutions have been incubated at 37° C. for 0 and 18 h prior to analysis. Samples have been monitored at 260 nm using a Beckman DU-800 spectrophotometer fitted with high performance temperature controller, and heated at 1° C. min^−1
in the 40-110° C. range. DNA helix[…]coil transition temperatures (Tm) have been obtained from the maxima in the d(A260)/dT derivative plots. Drug-induced alterations in DNA melting behavior are given by: ΔTm=Tm(DNA+PBD)−Tm (DNA alone), where the Tm value for the PBD-free CT-DNA is 69.1±0.01.

[3] = tested on: SK-MEL-5; test: NCI in vitro cytotoxicity (SRB); assay type: cell-based; details: Homo sapiens; Melanoma SK-MEL-5; 48 h exposure
[4] = tested on: K-562; test: NCI in vitro cytotoxicity (SRB); assay type: cell-based; details: Homo sapiens, K562; Leukemia K-562; 48 h exposure
[5] = tested on: OVCAR-4; test: NCI in vitro cytotoxicity (SRB); assay type: cell-based; details: Homo sapiens; Ovarian OVCAR-4; 48 h exposure
[6] = tested on: NCI-H522; test: NCI in vitro cytotoxicity (SRB); assay type: cell-based; details: Homo sapiens
[7] = tested on: SK-MEL-2; test: NCI in vitro cytotoxicity (SRB); assay type: cell-based; details: Homo sapiens; Melanoma SK-MEL-2; 48 h exposure
[8] = tested on: SW-620; test: NCI in vitro cytotoxicity (SRB); assay type: cell-based; details: Homo sapiens
[9] = tested on: SK-OV-3; test: NCI in vitro cytotoxicity (SRB); assay type: cell-based; details: Homo sapiens; Ovarian SK-OV-3; 48 h exposure
[10] = tested on: COLO 205; test: NCI in vitro cytotoxicity (SRB); assay type: cell-based; details: Homo sapiens; Colon COLO 205; 48 h exposure
[11] = tested on: Renal panel; test: NCI screen, panel average; assay type: cell-based, human; details: for LC50 (concentration causing 50% lethality): Homo sapiens, read-out: Log10 LC50 (concentration in mol/L causing 50% lethality) (converted); for Log10 GI50 (concentration in mol/L): Renal, average of six to eight cell lines
[12] = tested on: MDA-MB-435; test: NCI in vitro cytotoxicity (SRB); assay type: cell-based; details: Homo sapiens; Breast MDA-MB-435; 48 h exposure
[13] = tested on: 786-0; test: NCI in vitro cytotoxicity (SRB); assay type: cell-based; details: Homo sapiens; Renal 786-0; 48 h exposure
[14] = tested on: sixty human tumour cell lines; details: mean over human tumour cell lines
Procedure: For each compound, dose response curves for each cell line were measured at a minimum of five concentrations at 10 fold dilutions. A protocol of 48 h continuous drug exposure was used and a sulforhodamine B (SRB) protein assay was used to estimate cell viability or growth. The concentration causing 50% cell growth inhibition (G150), total cell growth inhibition (TGI 0% growth) and 50% cell death (LC50, −50% growth) compared with the control was calculated.

[15] = tested on: OVCAR-5; test: NCI in vitro cytotoxicity (SRB); assay type: cell-based; details: Homo sapiens; Ovarian OVCAR-5; 48 h exposure
[16] = tested on: CAKI-1; test: NCI in vitro cytotoxicity (SRB); assay type: cell-based; details: Homo sapiens; Renal CAKI-1; 48 h exposure
[17] = tested on: HOP-92; test: NCI in vitro cytotoxicity (SRB); assay type: cell-based; details: Homo sapiens; Non-smallcell lung HOP-92; 48 h exposure
[18] = tested on: NCI-H460; test: NCI in vitro cytotoxicity (SRB); assay type: cell-based; details: Homo sapiens; Non-smallcell lung NCI-H460; 48 h exposure
[19] = tested on: SF-539; test: NCI in vitro cytotoxicity (SRB); assay type: cell-based; details: Homo sapiens; CNS SF-539; 48 h exposure
[20] = tested on: CNS panel; test: NCI screen, panel average; assay type: cell-based, human; details: for Log10 GI50 (concentration in mol/L): CNS, average of six to eight cell lines; for LC50: Homo sapiens, read-out: Log10 LC50 (concentration in mol/L causing 50% lethality) (converted)
[21] = tested on: Breast panel; test: NCI screen, panel average; assay type: cell-based, human; details: for Log10 GI50 (concentration in mol/L): Breast, average of six to eight cell lines; for LC50: Homo sapiens, read-out: Log10 LC50 (concentration in mol/L causing 50% lethality) (converted)
[22] = tested on: NCI-H226; test: NCI in vitro cytotoxicity (SRB); assay type: cell-based; details: Homo sapiens; Non-smallcell lung NCI-H226; 48 h exposure
[23] = tested on: HT29; test: NCI in vitro cytotoxicity (SRB); assay type: cell-based; details: Homo sapiens, HT-29; Colon HT29; 48 h exposure
[24] = tested on: RPMI-8226; test: NCI in vitro cytotoxicity (SRB); assay type: cell-based; details: Homo sapiens; Leukemia RPMI-8226; 48 h exposure
[25] = tested on: SNB-75; test: NCI in vitro cytotoxicity (SRB); assay type: cell-based; details: Homo sapiens; CNS SNB-75; 48 h exposure
[26] = tested on: MCF7; test: NCI in vitro cytotoxicity (SRB); assay type: cell-based; details: Homo sapiens
[27] = tested on: Ovarian panel; test: NCI screen, panel average; assay type: cell-based, human; details: for LC50 (50% lethal concentration): Homo sapiens, read-out: Log10 LC50 (concentration in mol/L causing 50% lethality) (converted); for Log10 GI50 (concentration in mol/L): Ovarian, average of six to eight cell lines
[28] = tested on: HCT-116; test: NCI in vitro cytotoxicity (SRB); assay type: cell-based; details: Homo sapiens
[29] = tested on: TK-10; test: NCI in vitro cytotoxicity (SRB); assay type: cell-based; details: Homo sapiens; Renal TK-10; 48 h exposure
[30] = tested on: U251; test: NCI in vitro cytotoxicity (SRB); assay type: cell-based; details: Homo sapiens, U-251; CNS U251; 48 h exposure
[31] = tested on: NCI-H23; test: NCI in vitro cytotoxicity (SRB); assay type: cell-based; details: Homo sapiens; Non-smallcell lung NCI-H23; 48 h exposure
[32] = Non-smallcell lung NCI-H522, 48 h exposure

## COc1cc2c(cc1OCCCN1CCN(C(=S)SCCC(C#N)(c3ccccc3)c3ccccc3)CC1)N=C[C@@H]1CCCN1C2=O [Compound 12b, 3-cyano-3,3-diphenylpropyl 4-(3-[(11aS)-7-(methyloxy)-5-oxo-2,3,5,11a-tetrahydro-1H-benzo[e]pyrrolo[1,2-a][1,4]diazepin-8-yl]oxypropyl)hexahydro-1-pyrazinecarbodithioate]
[1]
  GI50: 0.25 µM
[2]
  ΔTm after incubation at 37° C. for 0 h: 2.0 °C
  ΔTm after incubation at 37° C. for 18 h: 4.0 °C
[3]
  GI50: 1.18 µM
[4]
  GI50: 0.26 µM
[5]
  GI50: 2.11 µM
[6]; [32]
  GI50: 0.17 µM
[6]; non-small cell lung NCI-H522
  GI50: 0.17 µM
[7]
  GI50: 1.16 µM
[8]; Colon SW-620, 48 h exposure
  GI50: 0.51 µM
[8]; colon cancer SW-620
  GI50: 0.51 µM
[9]
  GI50: 2.69 µM
[10]
  GI50: 1.3 µM
[11]
  LC50 (concentration causing 50% lethality): 4.07 µM
  Log10 GI50 (concentration in mol/L): −6.20 mol/L
[12]
  GI50: 0.55 µM
[13]
  GI50: 1.06 µM
[14]
  Log10GI50 mean graph midpoint (MG_MID): −6.15
  Log10LC50 mean graph midpoint (MG_MID): −4.96
  Log10TGI mean graph midpoint (MG_MID): −5.67
[15]
  GI50: 1.35 µM
[16]
  GI50: 0.3 µM
[17]
  GI50: 1.07 µM
[18]
  GI50: 0.77 µM
[19]
  GI50: 1.44 µM
[20]
  Log10 GI50 (concentration in mol/L): −6.12 mol/L
  LC50: 4.47 µM
[21]
  Log10 GI50 (concentration in mol/L): −6.13 mol/L
  LC50: 37.2 µM
[22]
  GI50: 1.51 µM
[23]
  GI50: 0.87 µM
[24]
  GI50: 0.22 µM
[25]
  GI50: 1.26 µM
[26]; MCF7, breast MCF-7
  GI50: 0.33 µM
[26]; Breast MCF7, 48 h exposure
  GI50: 0.33 µM
[27]
  LC50 (50% lethal concentration): 18.6 µM
  Log10 GI50 (concentration in mol/L): −6.03 mol/L
[28]; Colon HCT-116, 48 h exposure
  GI50: 0.38 µM
[28]; colon cancer HCT-116
  GI50: 0.38 µM
[29]
  GI50: 0.65 µM
[30]
  GI50: 0.39 µM
[31]
  GI50: 1.4 µM

## COc1cc2c(cc1OCCCCN1CCN(C(=S)SCCC(C#N)(c3ccccc3)c3ccccc3)CC1)N=C[C@@H]1CCCN1C2=O [Compound 12c, 3-cyano-3,3-diphenylpropyl 4-(4-[(11aS)-7-(methyloxy)-5-oxo-2,3,5,11a-tetrahydro-1H-benzo[e]pyrrolo[1,2-a][1,4]diazepin-8-yl]oxybutyl)hexahydro-1-pyrazinecarbodithioate]
[1]
  GI50: 0.32 µM
[2]
  ΔTm after incubation at 37° C. for 0 h: 2.0 °C
  ΔTm after incubation at 37° C. for 18 h: 2.1 °C
[3]
  GI50: 1.11 µM
[4]
  GI50: 3.29 µM
[5]
  GI50: 1.82 µM
[6]; [32]
  GI50: 0.19 µM
[7]
  GI50: 1.04 µM
[8]; Colon SW-620, 48 h exposure
  GI50: 1.12 µM
[9]
  GI50: 2.96 µM
[10]
  GI50: 1.4 µM
[11]
  LC50 (concentration causing 50% lethality): 15.1 µM
  Log10 GI50 (concentration in mol/L): −6.05 mol/L
[12]
  GI50: 1.04 µM
[13]
  GI50: 1.28 µM
[14]
  Log10GI50 mean graph midpoint (MG_MID): −5.98
  Log10LC50 mean graph midpoint (MG_MID): −4.48
  Log10TGI mean graph midpoint (MG_MID): −5.28
[15]
  GI50: 2.47 µM
[16]
  GI50: 0.59 µM
[17]
  GI50: 1.07 µM
[18]
  GI50: 1.25 µM
[19]
  GI50: 1.69 µM
[20]
  Log10 GI50 (concentration in mol/L): −5.84 mol/L
  LC50: 7.59 µM
[21]
  Log10 GI50 (concentration in mol/L): −6.02 mol/L
  LC50: 66.1 µM
[22]
  GI50: 1.26 µM
[23]
  GI50: 1.13 µM
[24]
  GI50: 0.49 µM
[25]
  GI50: 1.64 µM
[26]; Breast MCF7, 48 h exposure
  GI50: 0.43 µM
[27]
  LC50 (50% lethal concentration): 55 µM
  Log10 GI50 (concentration in mol/L): −5.82 mol/L
[28]; Colon HCT-116, 48 h exposure
  GI50: 0.54 µM
[29]
  GI50: 1.26 µM
[30]
  GI50: 1.11 µM
[31]
  GI50: 1.68 µM
